The text below walks through data of patent US8748464B2, “Use of SIRT1 activators or inhibitors to modulate an immune response” (The J. David Gladstone Institutes, priority 2008, dated 2014).

For test [1], the system named is Jurkat T cells. The test is described as follows: Real-time RT-PCR of IL-2 mRNA in α-CD3/28-activated Jurkat T cells. Format: cell-based, human. (In general: In qPCR the cycle at which signal appears reflects the starting amount.)
Protocol: Viral supernatant containing 1500 ng of p24 was used to infect 18×10^6 JurkatT cells. Infections were carried out in 6-well plates at 2400 rpm in a Beckman-Coulter centrifuge for 2 h at 32° C. in the presence of polybrene (1 μg/ml, Sigma).
Total RNA was extracted using RNA STAT-60 reagent (Tel-Test) according to the manufacturer's instruction. The first strand cDNA was generated using 2 μg of total RNA and SuperScript reverse transcriptase (Invitrogen). […] Relative gene expression ratios between stimulated and nonstimulated conditions were calculated by the equation, ratio=2^−ΔΔCt, comparative Ct method (Applied Biosystems).
Infected cultures were activated for 2 h and 8 h with α-CD3/28 antibodies. (B) Real-time RT-PCR analysis of IL-2 mRNA levels in infected cultures 2 h after activation with α-CD3/28.
The test system of test [2] is FLAG-FoxP3 in 293 T cells. The test is described as follows: Immunoprecipitation/western blot of acetylated FLAG-FoxP3 or HA-AML1/Runx1 in 293 T cells cotransfected with p300. The format is cell-based. The text has this:
FIGS. 10A-D. SIRT1 interacts with FoxP3 and inhibition of SIRT1 deacetylase activity increases acetylation of FoxP3. (A) Communoprecipitation/western blot analysis of FLAG-tagged FoxP3 and HA-tagged SIRT1 after transfection of corresponding expression vectors or empty vector controls into 293T cells. (B) Communoprecipitation assay of SIRT1 and FoxP3 deletion mutants. A schematic summary of the binding of FoxP3 mutants to SIRT1 is shown. The forkhead box (FH) indicates the DNA binding domain ZnF, zinc finger domain; LZ, leucine zipper. […] An expression vector for the p300 acetyltransferase was cotransfected with FoxP3. (D) The same experiment as in (C) using HA-AML1/Runx1. Immunoprecipitations were performed with either anti-FLAG antibody coupled to agarose (α-FLAG agarose) (C) or anti-hemagglutinin antibody coupled to agarose (α-HA agarose) (D) and western blotting with rabbit polyclonal antibody to acetyl-lysine (α-acetyl lysine) (α-AcK), α-FLAG or α-HA antibodies.
A general note: In western blotting, separated proteins are transferred to a membrane and probed.

The subject of test [3] is FLAG-FoxP3 in 293 T cells. The test is described as follows: Western blot of FLAG-FoxP3 (wild type or mutant) or FLAG-AML1/Runx1 expression in 293 T cells. The format is cell-based. The note with it: 293 T cells. How it is done:
To determine whether the three newly identified acetylated lysine residues regulate FoxP3 stability, mutants were generated in which each of three lysine residues was substituted to arginines (KR), a conservative mutation that preserves the positive charge of the residue.
To investigate the effect of SIRT1 inhibition and the three newly identified acetylation sites on FoxP3 protein stability, wild type and 3KR mutant FoxP3 protein expression was measured after treatment with cycloheximide (CHX), a general inhibitor of protein translation.
(B) Scheme of acetylated lysine residues identified by mass spectrometry using immunoprecipitated FLAG-FoxP3 protein. The murine protein is shown.

Test [4] addresses T1, SIRT1 (Homo sapiens, UniProt Q96EB6).
T1 sequence (Q96EB6 1-747): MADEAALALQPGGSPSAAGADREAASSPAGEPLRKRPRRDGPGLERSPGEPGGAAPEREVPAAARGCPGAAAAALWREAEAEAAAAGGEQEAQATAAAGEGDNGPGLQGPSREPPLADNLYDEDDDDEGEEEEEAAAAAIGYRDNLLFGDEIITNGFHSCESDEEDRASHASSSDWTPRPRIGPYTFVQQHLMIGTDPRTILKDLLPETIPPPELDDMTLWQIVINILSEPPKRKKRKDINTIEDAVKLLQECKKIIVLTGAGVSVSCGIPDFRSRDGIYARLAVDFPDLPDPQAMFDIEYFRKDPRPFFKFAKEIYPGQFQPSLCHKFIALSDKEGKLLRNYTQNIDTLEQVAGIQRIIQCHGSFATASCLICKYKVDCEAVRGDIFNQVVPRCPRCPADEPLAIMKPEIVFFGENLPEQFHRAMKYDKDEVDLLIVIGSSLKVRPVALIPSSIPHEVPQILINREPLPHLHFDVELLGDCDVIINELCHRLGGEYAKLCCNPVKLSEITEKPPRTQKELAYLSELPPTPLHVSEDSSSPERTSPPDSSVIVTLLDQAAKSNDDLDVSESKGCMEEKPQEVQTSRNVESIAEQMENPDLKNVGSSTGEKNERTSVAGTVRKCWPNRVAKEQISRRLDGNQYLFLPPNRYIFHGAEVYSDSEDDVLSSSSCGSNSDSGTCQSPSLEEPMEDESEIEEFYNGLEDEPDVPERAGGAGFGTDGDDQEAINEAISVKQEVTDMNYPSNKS
The test is described as follows: In vitro deacetylation of acetylated recombinant p65 by recombinant SIRT1, western blot α-AcK310 p65. The conditions noted are these: synthetic Tat 0.1 μg or nicotinamide 10 mM, preincubated 15 min; NAD 1 mM, 3 h, 37° C. Further details: purchased Biomol. Format: biochemical. On the procedure:
Recombinant p65 protein prepared from baculovirus-infected Sf9 insect cells (BD Biosciences) was acetylated by immunoprecipitated p300 overexpressed in 293 cells as previously described (Chen et al., 2005). Acetylated p65 protein was incubated with recombinant SIRT1 (1 μg/5U; Biomol) in SIRT1 deacetylase buffer (50 mM Tris-HCl pH 9, 4 mM MgCl2, 0.2 mM DTT) in the presence of NAD (1 mM; Sigma) for 3 h at 37° C. […] Reactions were stopped by the addition of SDS loading buffer, boiled, and after brief centrifugation, analyzed by western blotting with rabbit a-AcK310 p65 (Chen et al., 2005) or mouse α-p65 antibodies (sc-8008, Santa Cruz).
Next, we examined the effect of Tat on deacetylation of p65. In vitro acetylated recombinant p65 protein was incubated with recombinant SIRT1 and synthetic Tat proteins. The extent of deacetylation was determined by western blotting with antibody specific for acetylated K310 in p65 (α-AcK310 p65). […]
FIGS. 5A-D. Tat inhibits the SIRT1 deacetylase activity (A) In vitro deacetylation assay of recombinant SIRT1 in the presence of synthetic Tat (aa 1-72). The rate of 1 μM SIRT1 was calculated for 200 μM fluorogenic deacetylase substrate (aa 379-382 of p53) in the presence of twelve concentrations of synthetic Tat. […] Total cell lysates were analyzed by western blotting with α-AcK310 p65 or α-T7 antibodies. […]

In test [5] the test system is Jurkat T cells. The test is described as follows: IL-2 protein ELISA in supernatant of α-CD3-stimulated Jurkat T cells infected with EF-1α-GFP or EF-1α-Tat-GFP viruses. The note with it: 16 hrs. The format is cell-based, human. How it is done:
Lentiviral vectors, which contained the heterologous elongation factor 1α (EF-1α) promoter driving Tat and GFP expression, were generated. High titer viral stocks were produced and used to infect Jurkat T cells. […] Infected cultures were stimulated with antibodies specific for the CD3 receptor and treated with increased concentrations of resveratrol (0.4 μM, 2 μM, and 10 μM), a known SIRT1 activator for 16 hrs. IL-2 protein was measured in the culture supernatant by ELISA assay. Following stimulation with α-CD3 antibody, IL-2 protein was superinduced ˜4-fold by wild type Tat (FIG. 8A). In cells expressing Tat, ˜2300 pg/ml of IL-2 protein was detected in response to α-CD3 treatment, whereas in control cells, only ˜600 pg/ml of IL-2 protein was induced.
The effects of small molecule of SIRT1 ([…]) on T cell hyperactivation in Tat-expressing cells were examined. Jurkat T cells were infected with EF-1α-GFP or EF-1α-Tat-GFP viruses (FIG. 8B). Infected cultures were stimulated with α-CD3 antibody and treated with SRT2183 (0.2, 1, and 5 μM) for 16 hrs.
FIGS. 8A and 8B. Resveratrol and small molecule activator of SIRT1 (SRT2183) suppresses T cell hyperactivation by Tat. (A) IL-2 protein levels measured by ELISA in the supernatant of infected cultures. 24 hrs after infection with EF1α-GFP and EF1α-Tat-GFP viruses, Jurkat T cells were stimulated with α-CD3 antibody in the presence of increased concentrations of resveratrol (0.4, 2, and 10 μM) for 16 hrs. (B) 24 hrs after infection with EF1α-GFP and EF1α-Tat-GFP viruses, Jurkat T cells were stimulated with α-CD3 antibody in the presence of increased concentrations of SRT2183 (0.2, 1, and 5 μM) for 16 hrs. IL-2 protein levels were measured by ELISA in the supernatant of infected cultures.
For orientation: ELISA stands for enzyme-linked immunosorbent assay.

Test [6] concerns the target T1, SIRT1. The note with it: Howitz et al. 2003; Baur et al. 2006; cited from earlier work.

Regarding `NC(=O)c1cccnc1` [nicotinamide], in the test with Jurkat T cells [1], the “effect of combination with Tat on IL-2 expression” value is “no additive effect”. Moreover, the “IL-2 mRNA levels” value in the test with Jurkat T cells [1] (noninfected Jurkat T cells, nicotinamide 10 mM 1 h before α-CD3/28) is given as “superinduced IL-2 mRNA to similar levels as Tat”. Besides, in test [2], the “acetylation levels of FoxP3” value is listed as “increased acetylation levels of FoxP3” and the “acetylation of AML1/Runx1” value is listed as “increased to the same extent”. The “FoxP3 mRNA levels” value in test [3] is “No effect”. The FoxP3 protein expression entry in test [3] (nicotinamide 5 mM, Ex-527 50 μM or TSA 400 nM, 16 hours) is given as “upregulation of protein expression”. Also, at SIRT1 [4], the “deacetylation of p65 (K310) by SIRT1” value was “same inhibition of p65 deacetylation”.

As to `Oc1ccc(/C=C/c2cc(O)cc(O)c2)cc1` [resveratrol], the “ability of Tat to superinduce IL-2 production” value in the test on Jurkat T cells [5] (10 μM) is given as “completely impaired”. In the test with Jurkat T cells [5] (0.4, 2 and 10 μM), the “superinduction of IL-2 protein in Tat-expressing cells” value was “abolished by resveratrol in a concentration dependent manner”. Moreover, the “activation of SIRT1 enzymatic activity” value on SIRT1 [6] is on record as “(weak) reversible activator”.
